Paper doi:10.1101/2023.12.22.573011v1 (biorxiv, 2023)

Target: full-length TDP-43 (TDP-43) (Homo sapiens, UniProt Q13148)
Assay: isothermal titration calorimetry
Type: binding

Chain of full-length TDP-43 (TDP-43) (Q13148 whole entry): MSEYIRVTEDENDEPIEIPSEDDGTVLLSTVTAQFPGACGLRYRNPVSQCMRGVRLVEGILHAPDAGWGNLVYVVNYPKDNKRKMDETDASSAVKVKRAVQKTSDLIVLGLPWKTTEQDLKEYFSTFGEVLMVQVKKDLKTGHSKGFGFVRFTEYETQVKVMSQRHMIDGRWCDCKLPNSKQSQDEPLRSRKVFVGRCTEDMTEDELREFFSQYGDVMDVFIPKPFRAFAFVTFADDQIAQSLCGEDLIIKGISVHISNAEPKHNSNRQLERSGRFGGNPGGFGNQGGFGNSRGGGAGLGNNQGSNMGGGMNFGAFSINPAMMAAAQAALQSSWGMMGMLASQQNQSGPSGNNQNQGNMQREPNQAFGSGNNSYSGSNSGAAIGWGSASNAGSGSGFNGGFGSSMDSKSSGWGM

**Q.** With `O=C(O[C@@H]1Cc2c(O)cc(O)cc2O[C@@H]1c1cc(O)c(O)c(O)c1)c1cc(O)c(O)c(O)c1` [epigallocatechin gallate] as the molecule, how does the Kd read?
**A.** 7.8 µM
